Assay results published in ChEMBL document CHEMBL4811298, “Discovery of novel class of histone deacetylase inhibitors as potential anticancer agents” (Bioorg Med Chem, 2021).
pIC50: −log10 of the molar value. The source made the active and inactive calls. The calls are words filed in the database; no cut-off is given here.

Legend:
A549 = assay: Antiproliferative activity against human A549 cells assessed as reduction in cell viability incubated for 48 hrs by SRB assay; assay type: functional, cell-based; details: A549, 48 h
MCF7 [1] = assay: Antiproliferative activity against human MCF7 cells assessed as reduction in cell viability incubated for 48 hrs by SRB assay; assay type: functional, cell-based; details: MCF7, 48 h
MCF7 [2] = assay: Induction of cell cycle arrest in human MCF7 cells assessed as accumulation at G1/S phase at 1 uM incubated for 4 hrs by PI staining based flow cytometric analysis; assay type: functional
MCF7 [3] = assay: Upregulation of NFkB2 gene expression in human MCF7 cells at 3 uM incubated for 24 hrs by whole transcriptome analysis; assay type: functional, cell-based
MCF7 [4] = assay: Upregulation of SIRT4 gene expression in human MCF7 cells at 3 uM incubated for 24 hrs by whole transcriptome analysis; assay type: functional, cell-based
MCF7 [5] = assay: Induction of apoptosis in human MCF7 cells assessed as downregulation of c-Myc gene expression at 1 uM measured after 24 hrs whole transcriptome analysis; assay type: functional, cell-based
MCF7 [6] = assay: Induction of apoptosis in human MCF7 cells assessed as downregulation of c-Myc protein expression at 1 to 3 uM measured after 48 hrs western blot analysis; assay type: functional, cell-based; details: dose 1-3 µM
MCF7 [7] = assay: Induction of cell cycle arrest in human MCF7 cells assessed as accumulation at G2/M phase at 1 uM incubated for 24 hrs by PI staining based flow cytometric analysis; assay type: functional
MCF7 [8] = assay: Induction of apoptosis in human MCF7 cells assessed as reduction in Bcl3 gene expression at 3 uM incubated for 24 hrs by whole transcriptome analysis; assay type: functional, cell-based
MCF7 [9] = assay: Induction of apoptosis in human MCF7 cells assessed as increase in caspase 3/7 activity at 1 to 3 uM measured after 48 hrs by ELISA; assay type: functional, cell-based; details: dose 1-3 µM
MCF7 [10] = assay: Upregulation of SIRT2 gene expression in human MCF7 cells at 3 uM incubated for 24 hrs by whole transcriptome analysis; assay type: functional, cell-based
Histone deacetylase 4 = Histone deacetylase 4 (Homo sapiens, UniProt P56524); assay: Inhibition of N-terminal GST-tagged/C-terminal His-tagged human recombinant HDAC4 (627 to 1084 residues) expressed in baculovirus-infected Sf9 cells assessed as reduction in 7-amino-4-methylcoumarin release measured every 5 mins by fluorescence based analysis
Sequence of Histone deacetylase 4 (P56524 whole entry, the tested form may be a part): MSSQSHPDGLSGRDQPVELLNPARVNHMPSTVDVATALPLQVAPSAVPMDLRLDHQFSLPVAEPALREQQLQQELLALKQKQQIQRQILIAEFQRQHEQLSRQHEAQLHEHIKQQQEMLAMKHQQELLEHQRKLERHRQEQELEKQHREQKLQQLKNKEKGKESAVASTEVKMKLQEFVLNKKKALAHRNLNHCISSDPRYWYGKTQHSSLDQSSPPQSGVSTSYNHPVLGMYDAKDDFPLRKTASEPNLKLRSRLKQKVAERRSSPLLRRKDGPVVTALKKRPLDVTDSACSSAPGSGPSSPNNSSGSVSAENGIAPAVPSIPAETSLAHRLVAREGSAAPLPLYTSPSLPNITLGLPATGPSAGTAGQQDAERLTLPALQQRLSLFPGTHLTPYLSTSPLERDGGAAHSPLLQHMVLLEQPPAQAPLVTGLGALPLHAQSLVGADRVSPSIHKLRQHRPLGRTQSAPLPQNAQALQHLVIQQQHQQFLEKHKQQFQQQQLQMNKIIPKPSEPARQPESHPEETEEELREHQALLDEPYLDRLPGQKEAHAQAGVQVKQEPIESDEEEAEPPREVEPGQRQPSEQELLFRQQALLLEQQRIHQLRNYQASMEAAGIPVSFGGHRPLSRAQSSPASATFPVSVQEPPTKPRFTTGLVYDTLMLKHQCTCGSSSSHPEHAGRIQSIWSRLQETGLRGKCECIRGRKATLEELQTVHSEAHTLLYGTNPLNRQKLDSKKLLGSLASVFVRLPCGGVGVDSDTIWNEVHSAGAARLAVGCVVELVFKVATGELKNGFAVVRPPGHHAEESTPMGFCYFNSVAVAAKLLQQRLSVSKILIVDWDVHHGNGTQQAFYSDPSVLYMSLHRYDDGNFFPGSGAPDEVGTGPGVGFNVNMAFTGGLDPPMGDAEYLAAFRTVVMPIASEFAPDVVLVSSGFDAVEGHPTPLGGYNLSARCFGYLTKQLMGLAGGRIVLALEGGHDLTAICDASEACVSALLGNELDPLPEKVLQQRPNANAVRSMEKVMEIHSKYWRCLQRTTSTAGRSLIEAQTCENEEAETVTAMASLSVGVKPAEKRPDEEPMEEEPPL

[11] = target: Histone deacetylase (Homo sapiens) (UniProt Q13547+O15379+Q9UBN7+Q92769+Q9UQL6+Q8WUI4+Q9BY41+Q96DB2+P56524+Q9UKV0+Q969S8); assay: Inhibition of HDAC in human MCF7 cells assessed as increase in acetylated histone H4 mRNA level at 3 uM incubated for 24 hrs by whole transcriptome analysis; assay type: cell-based
Histone deacetylase 7 = target: T1, Histone deacetylase 7 (Homo sapiens, UniProt Q8WUI4); assay: Inhibition of N-terminal GST-tagged human HDAC7 (518 to end residues) expressed in baculovirus-infected Sf9 cells assessed as reduction in 7-amino-4-methylcoumarin release measured every 5 mins by fluorescence based analysis
T1 sequence (Q8WUI4 whole entry): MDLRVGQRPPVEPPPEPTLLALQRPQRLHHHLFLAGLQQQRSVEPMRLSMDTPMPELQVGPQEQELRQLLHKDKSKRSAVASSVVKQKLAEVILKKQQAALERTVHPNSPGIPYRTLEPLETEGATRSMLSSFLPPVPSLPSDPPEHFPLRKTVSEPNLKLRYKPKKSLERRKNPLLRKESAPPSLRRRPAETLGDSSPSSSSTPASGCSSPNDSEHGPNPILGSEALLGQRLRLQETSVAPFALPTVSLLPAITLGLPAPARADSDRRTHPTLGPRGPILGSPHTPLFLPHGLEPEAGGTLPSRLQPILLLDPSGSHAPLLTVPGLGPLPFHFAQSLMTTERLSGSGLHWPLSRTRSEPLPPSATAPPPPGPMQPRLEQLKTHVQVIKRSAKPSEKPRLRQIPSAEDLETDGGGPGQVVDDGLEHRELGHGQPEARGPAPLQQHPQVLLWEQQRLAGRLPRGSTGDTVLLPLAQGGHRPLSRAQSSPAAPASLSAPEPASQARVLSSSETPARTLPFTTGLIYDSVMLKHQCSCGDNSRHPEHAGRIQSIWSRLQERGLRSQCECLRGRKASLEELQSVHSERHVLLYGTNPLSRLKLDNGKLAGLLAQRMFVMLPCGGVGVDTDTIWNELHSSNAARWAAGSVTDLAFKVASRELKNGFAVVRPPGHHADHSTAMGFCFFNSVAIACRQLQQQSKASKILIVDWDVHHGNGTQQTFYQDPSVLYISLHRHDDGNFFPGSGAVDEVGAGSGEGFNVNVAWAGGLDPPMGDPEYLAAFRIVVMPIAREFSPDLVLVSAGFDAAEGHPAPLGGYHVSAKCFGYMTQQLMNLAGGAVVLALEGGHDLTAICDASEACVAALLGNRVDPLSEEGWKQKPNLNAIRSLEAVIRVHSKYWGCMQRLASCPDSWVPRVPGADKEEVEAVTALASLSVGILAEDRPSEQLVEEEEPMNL

MCF7 [12] = assay: Induction of cell cycle arrest in human MCF7 cells assessed as accumulation at G2/M phase at 1 uM incubated for 4 hrs by PI staining based flow cytometric analysis; assay type: functional
MCF7 [13] = assay: Downregulation of SIRT2 gene expression in human MCF7 cells at 3 uM incubated for 24 hrs by whole transcriptome analysis; assay type: functional, cell-based
Histone deacetylase 9 = Histone deacetylase 9 (Homo sapiens, UniProt Q9UKV0); assay: Inhibition of C-terminal His-tagged human HDAC9 (604 to 1066 residues) expressed in baculovirus-infected Sf9 cells assessed as reduction in 7-amino-4-methylcoumarin release measured every 5 mins by fluorescence based analysis
Sequence of Histone deacetylase 9 (Q9UKV0 whole entry, the tested form may be a part): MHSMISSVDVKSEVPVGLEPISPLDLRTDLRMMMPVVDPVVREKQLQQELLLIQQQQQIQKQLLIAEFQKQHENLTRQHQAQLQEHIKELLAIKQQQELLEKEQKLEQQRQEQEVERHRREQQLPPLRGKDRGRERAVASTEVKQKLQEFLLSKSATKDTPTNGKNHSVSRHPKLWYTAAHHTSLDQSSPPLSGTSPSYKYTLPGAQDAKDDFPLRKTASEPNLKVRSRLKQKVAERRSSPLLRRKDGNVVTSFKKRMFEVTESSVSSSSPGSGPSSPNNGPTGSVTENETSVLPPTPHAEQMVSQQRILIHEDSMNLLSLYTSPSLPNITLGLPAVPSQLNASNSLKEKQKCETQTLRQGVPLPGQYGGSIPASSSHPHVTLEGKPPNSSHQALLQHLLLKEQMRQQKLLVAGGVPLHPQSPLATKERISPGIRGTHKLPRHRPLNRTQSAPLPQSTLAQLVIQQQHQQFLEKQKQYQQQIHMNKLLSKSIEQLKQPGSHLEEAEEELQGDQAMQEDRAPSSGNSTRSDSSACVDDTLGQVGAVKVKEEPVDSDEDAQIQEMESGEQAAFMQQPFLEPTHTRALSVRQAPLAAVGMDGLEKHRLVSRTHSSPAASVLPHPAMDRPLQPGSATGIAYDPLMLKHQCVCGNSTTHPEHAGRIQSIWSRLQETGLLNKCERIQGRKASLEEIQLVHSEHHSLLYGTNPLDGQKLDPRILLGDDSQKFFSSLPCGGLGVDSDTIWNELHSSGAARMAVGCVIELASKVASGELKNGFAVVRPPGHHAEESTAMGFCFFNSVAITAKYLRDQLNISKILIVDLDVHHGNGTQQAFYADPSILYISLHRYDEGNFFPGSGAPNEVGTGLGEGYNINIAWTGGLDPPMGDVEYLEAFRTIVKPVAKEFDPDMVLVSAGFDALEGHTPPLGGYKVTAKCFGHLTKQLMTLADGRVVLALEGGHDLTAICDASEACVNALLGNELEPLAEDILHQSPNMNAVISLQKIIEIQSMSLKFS

MCF7 [14] = assay: Induction of apoptosis in human MCF7 cells assessed as reduction in Bcl2 gene expression at 3 uM incubated for 24 hrs by whole transcriptome analysis; assay type: functional, cell-based
MCF7 [15] = assay: Downregulation of SIRT4 gene expression in human MCF7 cells at 3 uM incubated for 24 hrs by whole transcriptome analysis; assay type: functional, cell-based
Histone deacetylase 2 = Histone deacetylase 2 (Homo sapiens, UniProt Q92769); assay type: cell-based, Sf9
Sequence of Histone deacetylase 2 (Q92769 whole entry): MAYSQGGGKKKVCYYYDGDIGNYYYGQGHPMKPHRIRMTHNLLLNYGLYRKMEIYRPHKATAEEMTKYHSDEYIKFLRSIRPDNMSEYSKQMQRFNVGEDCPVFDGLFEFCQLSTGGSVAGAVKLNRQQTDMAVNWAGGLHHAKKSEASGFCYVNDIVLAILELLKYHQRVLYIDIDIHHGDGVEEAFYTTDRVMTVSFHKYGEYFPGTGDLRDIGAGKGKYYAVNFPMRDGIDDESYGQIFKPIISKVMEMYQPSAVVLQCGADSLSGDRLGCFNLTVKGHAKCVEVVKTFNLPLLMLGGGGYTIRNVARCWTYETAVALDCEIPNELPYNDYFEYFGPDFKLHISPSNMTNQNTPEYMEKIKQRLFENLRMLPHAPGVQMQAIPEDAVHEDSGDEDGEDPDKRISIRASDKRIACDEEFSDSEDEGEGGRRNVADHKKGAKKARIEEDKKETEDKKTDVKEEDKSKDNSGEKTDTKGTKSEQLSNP

Histone deacetylase 5 [16] = target: T2, Histone deacetylase 5 (Homo sapiens, UniProt Q9UQL6); assay: Inhibition of N-terminal GST-tagged human recombinant full length HDAC5 expressed in baculovirus-infected Sf9 cells assessed as reduction in 7-amino-4-methylcoumarin release measured every 5 mins by fluorescence based analysis
T2 sequence (Q9UQL6 whole entry): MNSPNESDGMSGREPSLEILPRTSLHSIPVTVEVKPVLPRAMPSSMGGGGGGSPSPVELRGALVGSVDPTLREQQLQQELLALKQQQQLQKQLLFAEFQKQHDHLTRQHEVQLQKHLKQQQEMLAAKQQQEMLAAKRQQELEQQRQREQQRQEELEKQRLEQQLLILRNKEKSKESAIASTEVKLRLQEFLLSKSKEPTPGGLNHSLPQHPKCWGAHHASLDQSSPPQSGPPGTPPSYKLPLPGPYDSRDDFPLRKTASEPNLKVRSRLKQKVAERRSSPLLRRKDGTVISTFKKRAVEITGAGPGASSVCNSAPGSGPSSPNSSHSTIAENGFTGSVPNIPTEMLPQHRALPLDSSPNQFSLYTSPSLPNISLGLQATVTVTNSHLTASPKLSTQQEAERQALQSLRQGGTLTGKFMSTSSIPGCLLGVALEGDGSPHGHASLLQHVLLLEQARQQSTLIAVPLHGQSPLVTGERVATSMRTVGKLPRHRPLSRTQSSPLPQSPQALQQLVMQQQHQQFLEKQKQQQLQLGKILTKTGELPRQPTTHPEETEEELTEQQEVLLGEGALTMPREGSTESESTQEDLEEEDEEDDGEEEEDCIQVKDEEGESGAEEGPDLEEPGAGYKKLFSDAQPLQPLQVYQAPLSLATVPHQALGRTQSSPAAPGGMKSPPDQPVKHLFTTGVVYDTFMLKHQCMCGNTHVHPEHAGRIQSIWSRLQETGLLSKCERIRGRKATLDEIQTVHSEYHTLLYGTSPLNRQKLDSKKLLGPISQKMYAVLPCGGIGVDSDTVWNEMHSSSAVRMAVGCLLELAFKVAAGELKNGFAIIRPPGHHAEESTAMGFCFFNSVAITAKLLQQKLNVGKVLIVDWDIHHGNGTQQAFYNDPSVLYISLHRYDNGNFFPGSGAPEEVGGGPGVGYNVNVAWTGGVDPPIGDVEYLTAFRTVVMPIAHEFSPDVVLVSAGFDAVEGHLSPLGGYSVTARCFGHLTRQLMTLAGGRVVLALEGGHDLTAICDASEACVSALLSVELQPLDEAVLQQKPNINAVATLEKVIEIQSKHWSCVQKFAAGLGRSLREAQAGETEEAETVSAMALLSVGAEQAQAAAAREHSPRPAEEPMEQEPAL

MCF7 [17] = assay: Induction of cell cycle arrest in human MCF7 cells assessed as accumulation at subG1 phase at 1 uM incubated for 24 to 72 hrs by PI staining based flow cytometric analysis; assay type: functional; details: time 24-72 hrs
[18] = target: Histone deacetylase 3/Nuclear receptor corepressor 2 (HDAC3/NCoR2) (Homo sapiens, UniProt O15379); assay: Inhibition of C-terminal His-tagged human recombinant full length HDAC3 (1 to 428 residues)/N-terminal GST-tagged human recombinant NCOR2 (395 to 489 residues) expressed in baculovirus-infected Sf9 cells assessed as reduction in 7-amino-4-methylcoumarin release using fluorogenic HDAC substrate 3 measured every 5 mins by fluorescence based analysis
Histone deacetylase 1 = Histone deacetylase 1 (Homo sapiens, UniProt Q13547); assay: Inhibition of C-terminal FLAG/His-tagged human recombinant HDAC1 (1 to 482 residues) expressed in baculovirus-infected Sf9 cells assessed as reduction in 7-amino-4-methylcoumarin release using fluorogenic HDAC substrate 3 measured every 5 mins by fluorescence based analysis
Sequence of Histone deacetylase 1 (Q13547 whole entry, the tested form may be a part): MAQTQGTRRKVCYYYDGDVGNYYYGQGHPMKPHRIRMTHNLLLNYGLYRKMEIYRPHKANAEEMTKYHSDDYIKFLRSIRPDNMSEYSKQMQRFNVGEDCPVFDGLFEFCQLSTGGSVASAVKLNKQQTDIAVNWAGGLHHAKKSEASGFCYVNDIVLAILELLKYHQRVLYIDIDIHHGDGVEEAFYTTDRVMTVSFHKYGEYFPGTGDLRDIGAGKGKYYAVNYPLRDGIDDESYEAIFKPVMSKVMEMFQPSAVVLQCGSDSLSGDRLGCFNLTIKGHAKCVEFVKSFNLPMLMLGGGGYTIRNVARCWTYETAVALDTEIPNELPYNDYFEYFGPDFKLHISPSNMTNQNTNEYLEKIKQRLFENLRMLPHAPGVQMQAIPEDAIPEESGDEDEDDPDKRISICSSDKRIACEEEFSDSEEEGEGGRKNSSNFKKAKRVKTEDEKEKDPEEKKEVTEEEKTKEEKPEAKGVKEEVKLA

MCF7 [19] = assay: Downregulation of NFkB2 gene expression in human MCF7 cells at 3 uM incubated for 24 hrs by whole transcriptome analysis; assay type: functional, cell-based
MCF7 [20] = assay: Induction of cell cycle arrest in human MCF7 cells assessed downregulation of CDK1 gene expression at 3 uM incubated for 24 hrs by whole transcriptome analysis; assay type: functional, cell-based
MCF7 [21] = assay: Induction of cell cycle arrest in human MCF7 cells assessed downregulation of CDK4 gene expression at 3 uM incubated for 24 hrs by whole transcriptome analysis; assay type: functional, cell-based
MCF7 [22] = assay: Induction of cell cycle arrest in human MCF7 cells assessed downregulation of CDK2 gene expression at 3 uM incubated for 24 hrs by whole transcriptome analysis; assay type: functional, cell-based
MCF7 [23] = assay: Induction of cell cycle arrest in human MCF7 cells assessed downregulation of E2F1 gene expression at 3 uM incubated for 24 hrs by whole transcriptome analysis; assay type: functional, cell-based
MCF7 [24] = assay: Induction of cell cycle arrest in human MCF7 cells assessed downregulation of CDK6 gene expression at 3 uM incubated for 24 hrs by whole transcriptome analysis; assay type: functional, cell-based
MCF7 [25] = assay: Induction of cell cycle arrest in human MCF7 cells assessed downregulation of RB1 gene expression at 3 uM incubated for 24 hrs by whole transcriptome analysis; assay type: functional, cell-based
Histone deacetylase 5 [26] = target: T2, Histone deacetylase 5; assay: Potency index, ratio of vorinostat IC50 to test compound IC50 for Inhibition of N-terminal GST-tagged human recombinant full length HDAC5 expressed in baculovirus-infected Sf9 cells assessed as reduction in 7-amino-4-methylcoumarin release measured every 5 mins by fluorescence based analysis

| SMILES | pIC50 (A549) | pIC50 (MCF7 [1]) | Activity (MCF7 [2]) | Activity (MCF7 [3]) | Activity (MCF7 [5]) | Activity (MCF7 [6]) | Activity (MCF7 [7]) | Activity (MCF7 [8]) | Activity (MCF7 [9]) | pIC50 (Histone deacetylase 4) | pIC50 (Histone deacetylase 7) | inhibition (MCF7 [13]) | pIC50 (Histone deacetylase 9) | Activity (MCF7 [14]) | inhibition (MCF7 [15]) | pIC50 (Histone deacetylase 2) | pIC50 (Histone deacetylase 5 [16]) | Activity (MCF7 [17]) | pIC50 [18] | pIC50 (Histone deacetylase 1) | also measured |
| --- | --- | --- | --- | --- | --- | --- | --- | --- | --- | --- | --- | --- | --- | --- | --- | --- | --- | --- | --- | --- | --- |
| COc1cccc2c1C(=O)c1c(O)c3c(c(O)c1C2=O)C[C@@](O)(C(=O)CO)C[C@@H]3O[C@H]1C[C@H](N)[C@H](O)[C@H](C)O1 [DOXORUBICIN] | 7.05 | 7.42 |  |  |  |  |  |  |  |  |  |  |  |  |  |  |  |  |  |  |  |
| O=C(CCCCCCC(=O)Nc1ccccc1)NO |  |  | Active | Active | Active | Active | Active | inactive | Active |  |  |  |  |  |  |  |  |  |  |  | Activity (MCF7 [4]): Active; Activity (MCF7 [10]): Active |
| CC(C)(C)Nc1c(-c2cccc(C(=O)Nc3ccc(F)cc3N)c2)nc2ccccn12 | < 5.00 | 6.15 |  | Active | Active | Active | Active | Active | Active | < 5.00 | 5.21 | Active | 5.89 | Active | Active | < 5.00 | 4.91 | Active | 5.67 | < 5.00 | inhibition [11]: Active; Activity (MCF7 [12]): Active |
| CC(C)(C)Nc1c(-c2cccc(-c3nc4cc(-c5noc(C(F)(F)F)n5)ccc4[nH]3)c2)nc2ccccn12 | < 5.00 | < 5.00 | Active |  | Active |  |  | Active | Active | 5.78 | 5.31 | Active | 6.09 | Active | Active | < 5.00 | 6.51 | inactive | < 5.00 | < 5.00 | inhibition (MCF7 [19]): Active; Activity (MCF7 [20]): Active; Activity (MCF7 [21]): Active; Activity (MCF7 [22]): Active; Activity (MCF7 [23]): Active; Activity (MCF7 [24]): Active; Activity (MCF7 [25]): Active; Ratio IC50 (Histone deacetylase 5 [26]): > 33 |
| O=C(NC1CCN(Cc2ccccc2)C1)c1ccc(-c2noc(C(F)(F)F)n2)cc1 (stereo not given) |  |  |  |  |  |  |  |  |  | 7.72 |  |  | 7.32 |  |  |  | 7.21 |  | 5.96 |  |  |
| CC(C)(C)Nc1c(-c2ccc(-c3noc(C(F)(F)F)n3)cc2)nc2ccccn12 | < 5.00 | < 5.00 |  |  |  |  | Active | Active | Active | 5.45 | 5.16 | Active | 5.64 | Active | Active | < 5.00 | 6.09 | Active | < 5.00 | < 5.00 | inhibition (MCF7 [19]): Active; Activity (MCF7 [20]): Active; Activity (MCF7 [21]): Active; Activity (MCF7 [22]): Active; Activity (MCF7 [23]): Active; Activity (MCF7 [12]): Active; Activity (MCF7 [24]): Active; Activity (MCF7 [25]): Active |
